These results are taken from US10100041B2, “Pyrazolyl substituted tetrahydropyranylsulfones” (GRÜNENTHAL GMBH, priority 2015, dated 2018).

This assay concerns the target T1, Human CaV2.2 channels (Homo sapiens, UniProt Q00975).
T1 construct: expressed in transfected cells
Briefly: Fluorescence assay for CaV2.2 channels using potassium depolarization to induce channel opening (FLIPR, Fluo 4). The assay is classed as cell-based. Particulars: 30 mM KCl (alternative assay buffer, inactivated channel state), HEK293 cells; for Activity Category: %-Inhib (CaV2.2) @3 μM @30 mM KCl: 3 μM test compound; for inhibition at 3 µM: HEK293, 3 μM test compound, read-out: Activity Category: %-Inhib (CaV2.2) @3 μM @30 mM KCl. The text has this: In the process, the Ca^2+ influx is quantified in the FLIPR assay with the aid of a Ca^2+-sensitive dye (type Fluo-4, Molecular Probes Europe BV, Leiden, the Netherlands) in a fluorescent imaging plate reader (FLIPR 3, Molecular Devices, Sunnyvale, USA), as described hereinafter.
2.1 Fluorescence Assay for CaV2.2 Channels Using Potassium Depolarization to Induce Channel Opening
Human CaV2.2 channels were stably expressed in HEK293 cells together with alpha2-delta and beta subunits of voltage gated calcium channels. In addition, an inwardly rectifying potassium channel (Kir2.3) was stably expressed in these cells to augment control of the cell membrane potential by the concentration of extracellular potassium ions. Raise of the extracellular potassium concentration leads to depolarization of the membrane potential and thus regulates the voltage dependent state of CaV2.2 channels. For preparation, cells were seeded in black poly-D-lysine coated 96-well plates (Becton Dickinson, Biocoat 4640) in 100 μL medium [500 mL DMEM/F-12 plus Glutamax (Invitrogen 31331-093) plus 5.5 mL MEM NEAA 100× (Invitrogen 11140-035) plus 50 mL FBS decomplemented (Invitrogen 10270-106) plus 200 μg/mL Geneticin (Invitrogen 10131-027) plus 50 μg/mL Hygromycin B (Invitrogen 10687-010) plus 2 μg/mL Blasticidin (anti-b15b Invivo-Gen) plus 0.2 μg/mL Puromycin (A 11138-03)] at a cell density of 30.000 cells per well. Plates were incubated at 37° C. (5% CO2) for 20 to 23 h. On the day of experiment medium was discarded and cells were loaded with Fluo 4 by addition of 100 μL of basic assay buffer (10 mM HEPES, 1 mM KCl, 149 mM NaCl, 0.8 mM CaCl2, 1.7 mM MgCl2, 10 mM Glucose, 0.1% BSA. pH 7.4) containing 2 μM Fluo 4 (Molecular Probes; F-14201), 0.01% pluronic acid (Molecular Probes; P-6866) and 2.5 mM probenecid (Molecular Probes; P36400). Cells were incubated in the dark at 25° C. for 60 min. Then dye containing buffer was discarded and […] basic (1 mM KCl) or alternative (30 mM KCl) assay buffer was added. The alternative assay buffer contained altered concentrations of KCl (30 mM) and NaCl (120 mM) and was used in order to promote the inactivated channel state. After that 25 μL of basic or alternative assay buffer with or without test compound were added and cells were incubated again in the dark at 25° C. for 15 min. Fluorescence intensity was measured on a FLIPR 3 instrument (Molecular Devices Corp., Sunnyvale, Calif.) with excitation at 480 nm and emission at 535 nm. After continuously reading fluorescence for 30 sec, 50 μL of basic assay buffer containing 210 mM KCl (NaCl omitted) were added for depolarization. Peak fluorescent signal intensity was determined and the amplitude of the peak signal, normalized to base line, was used to measure channel inhibition by test compounds.

Bounds are passed on as bounds.

T1 sequence (Q00975 whole entry): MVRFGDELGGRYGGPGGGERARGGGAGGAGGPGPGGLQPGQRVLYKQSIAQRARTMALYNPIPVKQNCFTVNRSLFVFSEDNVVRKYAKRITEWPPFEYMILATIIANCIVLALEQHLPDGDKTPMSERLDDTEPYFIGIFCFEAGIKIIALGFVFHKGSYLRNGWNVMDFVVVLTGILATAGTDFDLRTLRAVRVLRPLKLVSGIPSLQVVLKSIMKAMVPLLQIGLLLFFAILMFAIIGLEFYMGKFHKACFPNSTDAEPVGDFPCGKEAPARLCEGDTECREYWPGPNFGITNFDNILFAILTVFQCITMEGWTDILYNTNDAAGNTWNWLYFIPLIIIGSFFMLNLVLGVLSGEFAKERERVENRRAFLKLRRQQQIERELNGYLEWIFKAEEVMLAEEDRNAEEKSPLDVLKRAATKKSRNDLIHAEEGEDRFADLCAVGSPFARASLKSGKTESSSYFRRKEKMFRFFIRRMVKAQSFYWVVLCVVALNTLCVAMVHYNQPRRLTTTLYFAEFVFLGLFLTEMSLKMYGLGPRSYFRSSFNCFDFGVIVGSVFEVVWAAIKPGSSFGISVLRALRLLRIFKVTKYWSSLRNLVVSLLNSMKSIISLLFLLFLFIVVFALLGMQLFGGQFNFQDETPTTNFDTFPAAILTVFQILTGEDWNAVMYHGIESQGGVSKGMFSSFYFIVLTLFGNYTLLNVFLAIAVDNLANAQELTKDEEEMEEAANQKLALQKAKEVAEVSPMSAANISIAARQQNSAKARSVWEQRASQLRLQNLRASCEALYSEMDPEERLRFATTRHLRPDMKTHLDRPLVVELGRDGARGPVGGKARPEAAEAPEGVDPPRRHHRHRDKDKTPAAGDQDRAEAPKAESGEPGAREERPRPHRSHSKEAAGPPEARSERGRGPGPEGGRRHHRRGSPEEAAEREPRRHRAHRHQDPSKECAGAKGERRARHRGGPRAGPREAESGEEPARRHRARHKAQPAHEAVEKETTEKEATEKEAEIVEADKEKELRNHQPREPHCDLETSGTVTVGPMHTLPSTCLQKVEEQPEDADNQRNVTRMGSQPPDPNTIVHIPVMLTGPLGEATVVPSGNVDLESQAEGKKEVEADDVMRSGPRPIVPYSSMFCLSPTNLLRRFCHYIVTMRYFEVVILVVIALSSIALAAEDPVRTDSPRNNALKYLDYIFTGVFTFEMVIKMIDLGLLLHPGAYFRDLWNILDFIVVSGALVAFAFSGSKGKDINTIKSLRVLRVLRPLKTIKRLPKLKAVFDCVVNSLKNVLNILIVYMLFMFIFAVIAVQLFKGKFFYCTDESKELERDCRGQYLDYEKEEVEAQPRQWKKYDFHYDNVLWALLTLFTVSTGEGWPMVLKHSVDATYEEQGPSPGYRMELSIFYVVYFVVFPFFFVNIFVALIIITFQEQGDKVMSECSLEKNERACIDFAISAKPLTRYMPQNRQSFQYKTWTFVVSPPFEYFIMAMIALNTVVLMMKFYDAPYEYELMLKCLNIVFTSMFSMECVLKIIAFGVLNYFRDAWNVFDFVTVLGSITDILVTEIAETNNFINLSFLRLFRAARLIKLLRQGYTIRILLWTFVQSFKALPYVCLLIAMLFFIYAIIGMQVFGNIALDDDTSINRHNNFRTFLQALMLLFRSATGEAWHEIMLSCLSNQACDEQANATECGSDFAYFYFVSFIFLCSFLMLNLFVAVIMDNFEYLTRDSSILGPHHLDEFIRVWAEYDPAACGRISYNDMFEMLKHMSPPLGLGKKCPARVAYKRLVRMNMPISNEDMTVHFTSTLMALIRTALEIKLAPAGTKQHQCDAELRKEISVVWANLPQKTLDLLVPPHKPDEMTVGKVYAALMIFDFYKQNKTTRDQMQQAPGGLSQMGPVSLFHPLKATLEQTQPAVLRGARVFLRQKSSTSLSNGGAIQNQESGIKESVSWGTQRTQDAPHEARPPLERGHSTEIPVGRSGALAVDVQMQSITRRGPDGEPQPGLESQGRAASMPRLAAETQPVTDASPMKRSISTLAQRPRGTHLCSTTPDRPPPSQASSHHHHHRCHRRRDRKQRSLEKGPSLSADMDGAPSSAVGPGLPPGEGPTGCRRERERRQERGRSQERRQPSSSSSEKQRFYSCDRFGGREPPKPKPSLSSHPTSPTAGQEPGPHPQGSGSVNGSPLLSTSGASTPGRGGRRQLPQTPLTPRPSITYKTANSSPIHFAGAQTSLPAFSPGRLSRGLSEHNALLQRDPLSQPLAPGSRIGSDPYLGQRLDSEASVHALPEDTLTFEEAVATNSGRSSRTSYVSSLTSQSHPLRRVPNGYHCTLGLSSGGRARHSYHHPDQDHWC

As to `CC1(S(=O)(=O)c2cccc(C(F)(F)F)c2)CCOC(c2cc(S(=O)(=O)C(F)F)nn2CCO)C1` (stereo not drawn) [Example 25 cis-EN2, 2-[3-(Difluoro-methylsulfonyl)-5-[4-methyl-4-[[3-(trifluoromethyl)phenyl]sulfonyl]-tetrahydro-pyran-2-yl]-1H-pyrazol-1-yl]-ethanol], the “Activity Category: %-Inhib (CaV2.2) @3 μM @30 mM KCl” value was “A (“A”: %-Inhibition >95%)”.

`CC(C)(C(N)=O)n1nc(C(F)(F)F)cc1C1CC(C)(S(=O)(=O)c2cccc(C(F)(F)F)c2)CCO1` (stereo not drawn) [Example 26 cis-EN1, 2-Methyl-2-[5-[4-methyl-4-[[3-(trifluoromethyl)phenyl]sulfonyl]-tetrahydro-pyran-2-yl]-3-(trifluoromethyl)-1H-pyrazol-1-yl]-propionamide]: the inhibition at 3 µM was more than 95%.

Regarding `CC(C)(C(N)=O)n1nc(C(F)(F)F)cc1C1CC(C)(S(=O)(=O)c2cccc(C(F)(F)F)c2)CCO1` (stereo not drawn) [Example 26 cis-EN2, 2-Methyl-2-[5-[4-methyl-4-[[3-(trifluoromethyl)phenyl]sulfonyl]-tetrahydro-pyran-2-yl]-3-(trifluoromethyl)-1H-pyrazol-1-yl]-propionamide], the “Activity Category: %-Inhib (CaV2.2) @3 μM @30 mM KCl” value is listed as “B (“B”: %-Inhibition >75% up to ≤95%)”. With `CN(C)C(=O)Cn1nc(C(F)(F)F)cc1C1CC(C)(S(=O)(=O)c2cccc(C(F)(F)F)c2)CCO1` (stereo not drawn) [Example 28 cis-EN1, N,N-Dimethyl-2-[5-[4-methyl-4-[[3-(trifluoromethyl)phenyl]sulfonyl]-tetrahydro-pyran-2-yl]-3-(trifluoromethyl)-1H-pyrazol-1-yl]-acetamide], the inhibition at 3 µM lay in the range of 75 to 95%.

As to `CNC(=O)Cn1nc(C(F)(F)F)cc1C1CC(C)(S(=O)(=O)c2cccc(C(F)(F)F)c2)CCO1` (stereo not drawn) [Example 29 cis-EN1, N-Methyl-2-[5-[4-methyl-4-[[3-(trifluoromethyl)phenyl]sulfonyl]-tetrahydro-pyran-2-yl]-3-(trifluoromethyl)-1H-pyrazol-1-yl]-acetamide], the inhibition at 3 µM was 75 to 95%.
